# Literature values as cited in patent publication US8053472B2, “Use of the acetyl L-carnitine in association with the biotin for the treatment of patients with type 2 insulin-resistant diabetes mellitus” (Sigma-Tau Industrie Farmaceutiche Riunite S.p.A., priority 2001, dated 2011).
# System: hypertriglyceridemic rats with noninsulin-dependent diabetes mellitus
# Conditions: high doses of biotin added to the diet
structure (smiles),measurement,value
O=C(O)CCCC[C@@H]1SC[C@@H]2NC(=O)N[C@@H]21 [biotin],altered tolerance to glucose,improves
